For series [1], the system named is mice of Kunming breed. Nature of the series: Apomorphine induced clambering assay of mice. The settings on record: Mus musculus; mice, po; apomorphine 1 mg/kg sc 1 hour after administration; read-out: Apomorphine induced clambering (ED50, po, mg/kg). In kind it is in vivo. How it is done: Healthy mice of Kunming breed (KM) (male, with body weight of 18-22 g) were provided by Qinglongshan Animal Cultivation Center, Nanjing.
Apomorphine provided by Sigma Company was dissolved in 0.9% NaCl (containing 0.1% vitamin C) before use, and was freshly formulated before use.
Vitamin C, F20061113, was provided by Sinopharm Chemical Reagent Co. Ltd.
Sodium chloride injection, H32026305, was provided by Xuzhou No. 5 Pharmaceutical Factory Co. Ltd.
Instruments: self-made clambering cage, chronograph.
Procedures: apomorphine induced clambering assay of mice
After 5 min of adaptation, the behavior of the mice at 10-11, 20-21, and 30-31 min after the injection of apomorphine were observed and scored. Scoring criteria: the behavior of 4 paws on the floor was scored as 0; the behavior of 2 forepaws on the cage was scored as 1; and the behavior of 4 paws on the cage was scored as 2.

Series [2] deals with Histamine H1 receptor (Rattus norvegicus, UniProt P31390). Nature of the series: Histamine H1 receptor binding assay (3H-pyrilamine, rat cerebellum membrane). As to conditions: for inhibition at 10 µM: read-out: H1 Inhibition rate (%); for affinity with H1 (in words): summary of in vitro assay.
Chain of Histamine H1 receptor (P31390 whole entry): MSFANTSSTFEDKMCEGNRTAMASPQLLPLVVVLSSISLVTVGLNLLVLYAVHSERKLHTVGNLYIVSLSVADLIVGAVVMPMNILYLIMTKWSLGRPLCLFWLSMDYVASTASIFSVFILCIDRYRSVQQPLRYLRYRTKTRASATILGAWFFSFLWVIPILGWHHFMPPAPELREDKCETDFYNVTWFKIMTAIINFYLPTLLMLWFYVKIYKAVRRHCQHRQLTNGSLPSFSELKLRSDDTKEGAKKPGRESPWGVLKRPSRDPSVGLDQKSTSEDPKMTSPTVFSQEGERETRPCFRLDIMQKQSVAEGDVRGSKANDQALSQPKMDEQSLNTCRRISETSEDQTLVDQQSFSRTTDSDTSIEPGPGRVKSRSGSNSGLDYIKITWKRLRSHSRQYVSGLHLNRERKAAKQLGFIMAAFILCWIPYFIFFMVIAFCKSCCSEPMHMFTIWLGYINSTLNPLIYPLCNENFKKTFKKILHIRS
Description: The supernatant was discarded to give pellets, and homogenate F was added again to the pellets for washing. Centrifugation was conducted and repeated 3 times.
(2) 100 μL of membrane preparation was added into each reaction tube.
Series [3] relates to D2 receptor. As to the kind of experiment: D2 receptor binding assay (3H-Spiperone, rat striatum membrane). The settings on record: for affinity with D2 (in words): summary of in vitro assay; for D2 Inhibition rate (%): test compound final concentration 10^−5 M, 3H-Spiperone, rat striatum membrane. How it is done:
Preparation of D2 Membrane
Rats were decapitated on ice. […] The weight of the homogenized tubes were adjusted using a balance, and centrifugation was conducted. […] Centrifugation was conducted.
(§1) Materials for the Receptor Binding Assay

Series [4] deals with mice of Kunming breed. As to the kind of experiment: MK-801 induced high activity in mice. In kind it is in vivo. As to conditions: Mus musculus, 1.5 h, po, MK-801 0.1 mg/kg ip, spontaneous activities in 90 min. How it is done:
Example 54: MK-801 Induced High Activity—the In Vivo Anti-Schizophrenia Activity of the Compounds
Healthy mice of Kunming breed (with half male and half female, (20±2) g) were provided by Qinglongshan Animal Cultivation Center, Nanjing.
Ascorbic acid was provided by Sinopharm Chemical Reagent Co. Ltd.
MK-801 was produced by Sigma Company, USA; the formulation method: 0.1% vitamin C was used to formulate a 1 mg/ml solution.
Test positive drugs: haloperidol, clozapine, risperidone, olanzapine, aripiprazole, ziprasidone, quetiapine.
Tween 80, with the concentration of 10%.
Mice with qualified body weight were selected, and randomly divided into blank group, model group, positive control group (risperidone group) and drug group. […] 1 h after the administration, 0.1% concentration of ascorbic acid was intraperitoneally injected to the blank group at 0.1 ml/10 g; and the model group, the positive control group (30 min) and the drug group were intraperitoneally injected the MK-801 solution at 0.1 mg/kg. Subsequently, the spontaneous activities of the mice of each group in 90 min were measured.

Series [5] addresses T1, D3 receptor (Homo sapiens, UniProt P35462).
T1 construct: expressed in transfected cells; host or cells: HEK-293
Nature of the series: D3 receptor assay ([3H]-Spiperone, HEK-293 cells). In kind it is binding. As to conditions: for affinity with D3 (in words): summary of in vitro assay; for inhibition at 10 µM: test compound final concentration 10 μmol/L, [3H]-Spiperone, HEK-293 cells, read-out: D3 Inhibition rate (%).

Series [6] addresses 5HT2A receptor (Rattus norvegicus, UniProt P14842). Nature of the series: 5HT2A receptor binding assay ([3H]-Ketanserin, rat striatum membrane). As to conditions: for inhibition at 10 µM: read-out: 5HT2A Inhibition rate (%); for affinity with 5HT2A (in words): summary of in vitro assay.
Series [7] can be described thus: Catalepsy assay in mice. As to conditions: both sexes, Kunming, mouse, in vivo, po, bar test at 30, 60, 90 min. How it is done:
Healthy mice of Kunming breed (with half male and half female, (22±2) g) were provided by Qinglongshan Animal Cultivation Center, Nanjing.
Instruments: self-made bar-grabbing apparatus: stainless steel bar in mice box, which was 0.3 cm in diameter and […].
Corresponding solvent double-distilled water was administered intragastrically to the negative control group and the model group, corresponding positive drugs were administered intragastrically to the positive drug groups (a small amount of acetic acid was first added and then double-distilled water was added when dissolving), and corresponding dosages of compounds were administered intragastrically to the compound groups for each dosage, with the volume for intragastric administration as 0.1 ml/10 g. At 30 min, 60 min, 90 min after the intragastric administration, the two forepaws of the mice were gently placed on the bars (which were 20 cm in length, 0.3 cm in diameter, and 5.5 cm above the bench), and the hindpaws of the animals were placed on the bottom of the box. The durations of the mice to maintain the posture with the two forepaws on the bars were recorded, and 30 s of spasticity without moving was considered as the positive response. In the case the forepaws of the mice were not put down persistently, the observation was terminated at 60 s. The numbers of animals with positive response in each of the compound dosage groups were counted.

Series [8] deals with T2, 5HT1A receptor (Rattus norvegicus, UniProt P19327).
T2 construct: Rats were decapitated on ice; from tissue; host or cells: rat brain striatum
T2 sequence (P19327 1-422): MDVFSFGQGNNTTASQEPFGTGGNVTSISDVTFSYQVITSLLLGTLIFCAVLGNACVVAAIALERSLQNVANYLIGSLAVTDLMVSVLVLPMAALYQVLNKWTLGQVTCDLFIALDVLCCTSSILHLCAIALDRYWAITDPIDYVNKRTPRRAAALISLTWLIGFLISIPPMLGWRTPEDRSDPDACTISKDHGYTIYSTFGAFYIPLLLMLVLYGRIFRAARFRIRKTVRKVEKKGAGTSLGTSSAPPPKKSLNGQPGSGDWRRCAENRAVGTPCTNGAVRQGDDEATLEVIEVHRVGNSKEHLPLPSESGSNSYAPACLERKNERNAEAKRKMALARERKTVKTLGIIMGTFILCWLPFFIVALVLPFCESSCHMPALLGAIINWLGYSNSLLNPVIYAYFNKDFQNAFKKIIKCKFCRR
As to the kind of experiment: 5HT1A receptor binding assay (3H-8-OH-DPAT, rat striatum membrane). The settings on record: for affinity with 5HT1A (in words): summary of in vitro assay; for inhibition at 10 µM: test compound final concentration 10^−5 M, 3H-8-OH-DPAT, rat striatum membrane, read-out: 5HT1A Inhibition rate (%). How it is done:
Preparation of 5HT1A Membrane
Rats were decapitated on ice. […] Incubation at 37° C. was conducted for 10 min. […] Centrifugation was conducted at 12000 rpm, 4° C. for 20 min. […] Centrifugation was conducted and repeated 3 times.
as §1

Structures are written as SMILES.

Chain of 5HT2A receptor (P14842 whole entry): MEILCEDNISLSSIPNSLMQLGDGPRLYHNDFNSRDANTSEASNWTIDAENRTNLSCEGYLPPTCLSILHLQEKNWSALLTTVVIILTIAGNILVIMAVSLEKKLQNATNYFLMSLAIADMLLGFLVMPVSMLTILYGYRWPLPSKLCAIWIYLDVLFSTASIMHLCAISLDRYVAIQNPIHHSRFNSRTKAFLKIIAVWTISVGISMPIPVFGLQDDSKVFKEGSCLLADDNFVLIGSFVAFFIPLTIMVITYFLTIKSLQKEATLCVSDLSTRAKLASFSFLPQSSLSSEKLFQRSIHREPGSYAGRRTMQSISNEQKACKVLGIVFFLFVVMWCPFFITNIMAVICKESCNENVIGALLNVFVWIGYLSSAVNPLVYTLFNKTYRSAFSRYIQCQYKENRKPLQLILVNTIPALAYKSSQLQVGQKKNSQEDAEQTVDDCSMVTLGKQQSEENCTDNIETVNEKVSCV
T1 sequence (P35462 whole entry): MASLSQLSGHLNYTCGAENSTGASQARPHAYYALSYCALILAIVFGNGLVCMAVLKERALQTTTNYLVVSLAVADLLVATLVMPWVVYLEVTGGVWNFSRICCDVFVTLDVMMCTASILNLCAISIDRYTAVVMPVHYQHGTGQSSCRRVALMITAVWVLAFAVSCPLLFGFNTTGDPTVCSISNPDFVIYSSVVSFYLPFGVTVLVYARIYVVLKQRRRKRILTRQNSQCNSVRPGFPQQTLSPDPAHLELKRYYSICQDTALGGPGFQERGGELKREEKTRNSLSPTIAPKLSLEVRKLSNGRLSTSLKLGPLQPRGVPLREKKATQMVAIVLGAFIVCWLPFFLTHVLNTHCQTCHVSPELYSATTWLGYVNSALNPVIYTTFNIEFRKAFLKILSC

Regarding `O=C(CCCN1CCC(c2noc3cc(F)ccc23)CC1)c1cc2c3c(c1)CCC(=O)N3CCC2` [Compound 5], in series [1], the ED50 came to 1.31 mg/kg. In series [2], the inhibition at 10 µM amounted to 44.5% and the “affinity with H1 (in words)” value is “low affinities”. Also, in series [3], the “affinity with D2 (in words)” value was “high affinities” and the “D2 Inhibition rate (%)” value is given as 99.40%. For the same compound, the ED50 in series [4] is 2.2 mg/kg. In addition, in series [5], the “affinity with D3 (in words)” value is “high affinities” and the inhibition at 10 µM amounted to 98%. In addition, in series [6], the inhibition at 10 µM was found to be 99.5% and the “affinity with 5HT2A (in words)” value was “high affinities”. In series [7], this compound had an ED50 above 200 mg/kg. For the same compound, in series [8], the “affinity with 5HT1A (in words)” value is on record as “high affinities” and the inhibition at 10 µM is 99.8%.

With `O=C(CCN1CCC(c2noc3cc(F)ccc23)CC1)c1cc2c3c(c1)CCN3C(=O)CC2` [Compound 12], the ED50 in series [1] amounted to 0.076 mg/kg. For the same compound, in series [2], the inhibition at 10 µM came out at 41.4% and the “affinity with H1 (in words)” value is listed as “low affinities”. In series [3], the “affinity with D2 (in words)” value was “high affinities” and the “D2 Inhibition rate (%)” value is 97.75%. The compound also had an ED50 in series [4] of 0.06 mg/kg. Moreover, in series [5], the “affinity with D3 (in words)” value is recorded as “high affinities” and the inhibition at 10 µM is 94.9%. In series [6], the inhibition at 10 µM was 94.4% and the “affinity with 5HT2A (in words)” value is given as “high affinities”. Further, in series [7], the ED50 came to 8.45 mg/kg. Also, in series [8], the “affinity with 5HT1A (in words)” value is on record as “high affinities” and the inhibition at 10 µM worked out at 96.5%.

The inhibition is the share of the control response that was lost under treatment.

These data come from patent US10517862B2, “Fused heterocyclic compound derivative and application thereof” (NHWA PHARMA. CORPORATION, priority 2015, dated 2019).
